Measured values from patent US20170050957A1, “4-AMINO-6-(HETEROCYCLIC)PICOLINATES AND 6-AMINO-2-(HETEROCYCLIC)PYRIMIDINE-4-CARBOXYLATES AND THEIR USE AS HERBICIDES” (Dow AgroSciences LLC, priority 2013, published 2017).

Tests used:
[1] = test system: ivyleaf morningglory (Ipomoea hederecea); assay: Post-emergent Test I herbicidal activity; assay type: in vivo
[2] = test system: Wheat and Barley and test plant species; assay: Post-emergent Test III, herbicidal activity in wheat and barley (Table 17; visual injury, GR20/GR50/GR80/GR90); assay type: in vivo; conditions: 21 d; for Visual Growth Reduction (%) 21 Days After Application, CIRAR / Visual Growth Reduction (%) 21 Days After Application, GALAP / Visual Growth Reduction (%) 21 Days After Application, HORVS / Visual Growth Reduction (%) 21 Days After Application, KCHSC / Visual Growth Reduction (%) 21 Days After Application, LAMPU / Visual Growth Reduction (%) 21 Days After Application, MATCH / Visual Growth Reduction (%) 21 Days After Application, PAPRH / Visual Growth Reduction (%) 21 Days After Application, SASKR / Visual Growth Reduction (%) 21 Days After Application, SINAR / Visual Growth Reduction (%) 21 Days After Application, TRZAS / Visual Growth Reduction (%) 21 Days After Application, VERPE / Visual Growth Reduction (%) 21 Days After Application, VIOTR: post-emergent
Experimental: Post-emergent Test III. Seeds of the desired test plant species were planted in Sun Gro MetroMix® 306 planting mixture, which typically has a pH of 6.0 to 6.8 and an organic matter content of about 30 percent, in plastic pots with a surface area of 103.2 square centimeters (cm^2). When required to ensure good germination and healthy plants, a fungicide treatment and/or other chemical or physical treatment was applied. The plants were grown for 7-36 days (d) in a greenhouse with an approximate 14 hour (h) photoperiod which was maintained at about 18° C. during the day and 17° C. during the night. Nutrients and water were added on a regular basis and supplemental lighting was provided with overhead metal halide 1000-Watt lamps as necessary. The plants were employed for testing when they reached the second or third true leaf stage.
A weighed amount, determined by the highest rate to be tested, of each test compound was placed in a 25 mL glass vial and was dissolved in 4 mL of a 97:3 v/v mixture of acetone and DMSO to obtain concentrated stock solutions. […] The concentrated stock solutions obtained were diluted with 20 mL of an aqueous mixture containing acetone, water, isopropyl alcohol, DMSO, Agri-Dex crop oil concentrate, and X-77 surfactant in a 48:39:10:1.5:1.5:0.02 v/v ratio to obtain spray solutions containing the highest application rates. Additional application rates were obtained by serial dilution of 12 mL of the high rate solution into a solution containing 2 mL of 97:3 v/v mixture of acetone and DMSO and 10 mL of an aqueous mixture containing acetone, water, isopropyl alcohol, DMSO, Agri-Dex crop oil concentrate, and X-77 surfactant in a 48:39:10:1.5:1.5:0.02 v/v ratio to obtain 1/2×, 1/4×, 1/8× and 1/16× rates of the high rate. Compound requirements are based upon a 12 mL application volume at a rate of 187 liters per hectare (L/ha). Formulated compounds were applied to the plant material with an overhead Mandel track sprayer equipped with 8002E nozzles calibrated to deliver 187 L/ha over an application area of 0.503 square meters at a spray height of 18 inches (43 cm) above the average plant canopy height. Control plants were sprayed in the same manner with the solvent blank.
The treated plants and control plants were placed in a greenhouse as described above and watered by subirrigation to prevent wash-off of the test compounds. After 21 d, the condition of the test plants as compared with that of the untreated plants was determined visually and scored on a scale of 0 to 100 percent where 0 corresponds to no injury and 100 corresponds to complete kill. By applying the well-accepted probit analysis as described by J. Berkson in Journal of the American Statistical […], 48, 565 (1953) and by D. Finney in “Probit Analysis” Cambridge University Press (1952), the above data can be used to calculate GR20, GR50, GR80 and GR90 values, which are defined as growth reduction factors that correspond to the effective dose of herbicide required to kill or control 20 percent, 50 percent, 80 percent or 90 percent, respectively, of a target plant.

## COC(=O)c1nc(-c2ccc3ccn(C)c3c2)c(F)c(N)c1Cl [Compound 1.10]
[1]; 3.96 Kg ai/ha
  Visual Growth Reduction (%) 10 Days After Application IPOHE: F (30-44)

## COC(=O)c1nc(-c2ccc3sccc3c2)cc(N)c1Cl [Compound 3.05]
[1]; 4 Kg ai/ha
  Visual Growth Reduction (%) 10 Days After Application IPOHE: B (85-94)

## COC(=O)c1nc(-c2ccc3cc[nH]c3c2F)c(F)c(N)c1Cl [Compound 1.15, Methyl 4-amino-3-chloro-5-fluoro-6-(7-fluoro-1H-indol-6-yl)picolinate]
[2]; CIRAR, 17.5 g ai/ha
  Visual Growth Reduction (%) 21 Days After Application, CIRAR: F (30-44)
[2]; CIRAR, 35 g ai/ha
  Visual Growth Reduction (%) 21 Days After Application, CIRAR: D (60-74)
[2]; CIRAR, 70 g ai/ha
  Visual Growth Reduction (%) 21 Days After Application, CIRAR: C (75-84)
[2]; CIRAR, dose for 50 percent growth reduction, probit analysis
  GR50, CIRAR: 30 g ai/ha
[2]; CIRAR, dose for 80 percent growth reduction, probit analysis
  GR80, CIRAR: 70 g ai/ha
[2]; CIRAR, dose for 90 percent growth reduction, probit analysis
  GR90, CIRAR: 109 g ai/ha
[2]; GALAP, 17.5 g ai/ha
  Visual Growth Reduction (%) 21 Days After Application, GALAP: D (60-74)
[2]; GALAP, 35 g ai/ha
  Visual Growth Reduction (%) 21 Days After Application, GALAP: B (85-94)
[2]; GALAP, 70 g ai/ha
  Visual Growth Reduction (%) 21 Days After Application, GALAP: A (95-100)
[2]; GALAP, dose for 50 percent growth reduction, probit analysis
  GR50, GALAP: 9 g ai/ha
[2]; GALAP, dose for 80 percent growth reduction, probit analysis
  GR80, GALAP: 23 g ai/ha
[2]; GALAP, dose for 90 percent growth reduction, probit analysis
  GR90, GALAP: 37 g ai/ha
[2]; HORVS, 17.5 g ai/ha
  Visual Growth Reduction (%) 21 Days After Application, HORVS: F (30-44)
[2]; HORVS, 35 g ai/ha
  Visual Growth Reduction (%) 21 Days After Application, HORVS: E (45-59)
[2]; HORVS, 70 g ai/ha
  Visual Growth Reduction (%) 21 Days After Application, HORVS: E (45-59)
[2]; HORVS, dose for 20 percent growth reduction, probit analysis
  GR20, HORVS: 8 g ai/ha
[2]; KCHSC, 17.5 g ai/ha
  Visual Growth Reduction (%) 21 Days After Application, KCHSC: D (60-74)
[2]; KCHSC, 35 g ai/ha
  Visual Growth Reduction (%) 21 Days After Application, KCHSC: B (85-94)
[2]; KCHSC, 70 g ai/ha
  Visual Growth Reduction (%) 21 Days After Application, KCHSC: B (85-94)
[2]; KCHSC, dose for 50 percent growth reduction, probit analysis
  GR50, KCHSC: 6 g ai/ha
[2]; KCHSC, dose for 80 percent growth reduction, probit analysis
  GR80, KCHSC: 28 g ai/ha
[2]; KCHSC, dose for 90 percent growth reduction, probit analysis
  GR90, KCHSC: 67 g ai/ha
[2]; LAMPU, 17.5 g ai/ha
  Visual Growth Reduction (%) 21 Days After Application, LAMPU: A (95-100)
[2]; LAMPU, 35 g ai/ha
  Visual Growth Reduction (%) 21 Days After Application, LAMPU: A (95-100)
[2]; LAMPU, 70 g ai/ha
  Visual Growth Reduction (%) 21 Days After Application, LAMPU: A (95-100)
[2]; LAMPU, dose for 50 percent growth reduction, probit analysis
  GR50, LAMPU: 0.10 g ai/ha
[2]; LAMPU, dose for 80 percent growth reduction, probit analysis
  GR80, LAMPU: 1 g ai/ha
[2]; LAMPU, dose for 90 percent growth reduction, probit analysis
  GR90, LAMPU: 2 g ai/ha
[2]; MATCH, 17.5 g ai/ha
  Visual Growth Reduction (%) 21 Days After Application, MATCH: F (30-44)
[2]; MATCH, 35 g ai/ha
  Visual Growth Reduction (%) 21 Days After Application, MATCH: E (45-59)
[2]; MATCH, 70 g ai/ha
  Visual Growth Reduction (%) 21 Days After Application, MATCH: D (60-74)
[2]; MATCH, dose for 50 percent growth reduction, probit analysis
  GR50, MATCH: 45 g ai/ha
[2]; MATCH, dose for 80 percent growth reduction, probit analysis
  GR80, MATCH: >140 g ai/ha
[2]; MATCH, dose for 90 percent growth reduction, probit analysis
  GR90, MATCH: >140 g ai/ha
[2]; PAPRH, 17.5 g ai/ha
  Visual Growth Reduction (%) 21 Days After Application, PAPRH: A (95-100)
[2]; PAPRH, 35 g ai/ha
  Visual Growth Reduction (%) 21 Days After Application, PAPRH: A (95-100)
[2]; PAPRH, 70 g ai/ha
  Visual Growth Reduction (%) 21 Days After Application, PAPRH: A (95-100)
[2]; PAPRH, dose for 50 percent growth reduction, probit analysis
  GR50, PAPRH: 0.06 g ai/ha
[2]; PAPRH, dose for 80 percent growth reduction, probit analysis
  GR80, PAPRH: 1 g ai/ha
[2]; PAPRH, dose for 90 percent growth reduction, probit analysis
  GR90, PAPRH: 2 g ai/ha
[2]; SASKR, 17.5 g ai/ha
  Visual Growth Reduction (%) 21 Days After Application, SASKR: C (75-84)
[2]; SASKR, 35 g ai/ha
  Visual Growth Reduction (%) 21 Days After Application, SASKR: C (75-84)
[2]; SASKR, 70 g ai/ha
  Visual Growth Reduction (%) 21 Days After Application, SASKR: B (85-94)
[2]; SASKR, dose for 50 percent growth reduction, probit analysis
  GR50, SASKR: 7 g ai/ha
[2]; SASKR, dose for 80 percent growth reduction, probit analysis
  GR80, SASKR: 30 g ai/ha
[2]; SASKR, dose for 90 percent growth reduction, probit analysis
  GR90, SASKR: 95 g ai/ha
[2]; SINAR, 17.5 g ai/ha
  Visual Growth Reduction (%) 21 Days After Application, SINAR: A (95-100)
[2]; SINAR, 35 g ai/ha
  Visual Growth Reduction (%) 21 Days After Application, SINAR: A (95-100)
[2]; SINAR, 70 g ai/ha
  Visual Growth Reduction (%) 21 Days After Application, SINAR: A (95-100)
[2]; SINAR, dose for 50 percent growth reduction, probit analysis
  GR50, SINAR: 4 g ai/ha
[2]; SINAR, dose for 80 percent growth reduction, probit analysis
  GR80, SINAR: 8 g ai/ha
[2]; SINAR, dose for 90 percent growth reduction, probit analysis
  GR90, SINAR: 12 g ai/ha
[2]; TRZAS, 17.5 g ai/ha
  Visual Growth Reduction (%) 21 Days After Application, TRZAS: F (30-44)
[2]; TRZAS, 35 g ai/ha
  Visual Growth Reduction (%) 21 Days After Application, TRZAS: E (45-59)
[2]; TRZAS, 70 g ai/ha
  Visual Growth Reduction (%) 21 Days After Application, TRZAS: D (60-74)
[2]; TRZAS, dose for 20 percent growth reduction, probit analysis
  GR20, TRZAS: 13 g ai/ha
[2]; VERPE, 17.5 g ai/ha
  Visual Growth Reduction (%) 21 Days After Application, VERPE: A (95-100)
[2]; VERPE, 35 g ai/ha
  Visual Growth Reduction (%) 21 Days After Application, VERPE: A (95-100)
[2]; VERPE, 70 g ai/ha
  Visual Growth Reduction (%) 21 Days After Application, VERPE: A (95-100)
[2]; VERPE, dose for 50 percent growth reduction, probit analysis
  GR50, VERPE: 0.28 g ai/ha
[2]; VERPE, dose for 80 percent growth reduction, probit analysis
  GR80, VERPE: 2 g ai/ha
[2]; VERPE, dose for 90 percent growth reduction, probit analysis
  GR90, VERPE: 6 g ai/ha
[2]; VIOTR, 17.5 g ai/ha
  Visual Growth Reduction (%) 21 Days After Application, VIOTR: E (45-59)
[2]; VIOTR, 35 g ai/ha
  Visual Growth Reduction (%) 21 Days After Application, VIOTR: D (60-74)
[2]; VIOTR, 70 g ai/ha
  Visual Growth Reduction (%) 21 Days After Application, VIOTR: C (75-84)
[2]; VIOTR, dose for 50 percent growth reduction, probit analysis
  GR50, VIOTR: 22 g ai/ha
[2]; VIOTR, dose for 80 percent growth reduction, probit analysis
  GR80, VIOTR: 63 g ai/ha
[2]; VIOTR, dose for 90 percent growth reduction, probit analysis
  GR90, VIOTR: 111 g ai/ha
